ChEMBL document CHEMBL1201862, “PubChem BioAssay data set” (2004)
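Assay format: 96-well plates, 48-hour exposure. GI50: concentration for 50% inhibition of growth.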 Calls of active or inactive are those of the source. Rule as the data show it: active = GI50 up to about 1.1 µM and inactive = higher.

Columns and labels:
Assay in all cases: inhibition of tumour cell growth, NCI panel, 48 h
[1] = system: A498
[2] = system: CAKI-1
[3] = system: CCRF-CEM
[4] = system: HCC 2998
[5] = system: HCT-116
[6] = system: HCT-15
[7] = system: LOX IMVI
[8] = system: MCF7
[9] = system: MOLT-4
[10] = system: Malme-3M
[11] = system: NCI-H522
[12] = system: NCI/ADR-RES
[13] = system: OVCAR-3
[14] = system: SF-295
[15] = system: SK-OV-3
[16] = system: SNB-19
[17] = system: SW-620
[18] = system: TK-10
[19] = system: UACC-62
[20] = system: UO-31

SMILES | GI50 [1] | GI50 [2] | GI50 [3] | GI50 [4] | GI50 [5] | GI50 [6] | GI50 [7] | GI50 [8] | GI50 [9] | GI50 [10] | GI50 [11] | GI50 [12] | GI50 [13] | GI50 [14] | GI50 [15] | GI50 [16] | GI50 [17] | GI50 [18] | GI50 [19] | GI50 [20]
COc1cccc(N(CN2CC=CC2=O)C(C)=O)c1 | > 100 µM (inactive) | > 100 µM (inactive) | > 100 µM (inactive) | > 100 µM (inactive) | > 100 µM (inactive) | > 100 µM | > 100 µM (inactive) | > 100 µM (inactive) | > 100 µM (inactive) | > 100 µM (inactive) | > 100 µM (inactive) | > 100 µM (inactive) | > 100 µM (inactive) | > 100 µM (inactive) | > 100 µM (inactive) | > 100 µM (inactive) | > 100 µM (inactive) | > 100 µM (inactive) | > 100 µM (inactive) | > 100 µM (inactive)
COc1cc2c(c3c1c(=O)c1ccccc1n3C)C=CC1(CCCCC1)O2 | 5.96 µM (inactive) | 0.764 µM (active) | 2.55 µM (inactive) | 4.59 µM (inactive) | 2.88 µM (inactive) | 3.08 µM | 3.75 µM (inactive) | 2.31 µM (inactive) | 3.11 µM (inactive) | 3.43 µM (inactive) | 3.96 µM (inactive) | 3.65 µM (inactive) | 3.53 µM (inactive) | 1.44 µM (inactive) | 5.53 µM (inactive) | > 7.18 µM (inactive) | 6.92 µM (inactive) | > 8.95 µM (inactive) | 4.14 µM (inactive) | 0.1 µM (active)
CC(=O)OCC1OC(n2cnc3nc(Br)[nH]c(=O)c32)C(OC(C)=O)C1OC(C)=O (stereo not given) | > 100 µM (inactive) | > 100 µM (inactive) | > 100 µM (inactive) | > 100 µM (inactive) | > 100 µM (inactive) | > 100 µM | > 100 µM (inactive) | 62.4 µM (inactive) | > 100 µM (inactive) | > 100 µM (inactive) | > 100 µM (inactive) | > 100 µM (inactive) | > 100 µM (inactive) | > 100 µM (inactive) | > 100 µM (inactive) | > 100 µM (inactive) | > 100 µM (inactive) | > 100 µM (inactive) | > 100 µM (inactive) | > 100 µM (inactive)
CNC(=O)CCCN(C)C(=O)CCCCC(=O)N(C)C | 34.4 µM (inactive) | > 37.6 µM (inactive) | 40.5 µM (inactive) | > 51.1 µM (inactive) | > 57.5 µM (inactive) | > 60.4 µM | > 57.5 µM (inactive) | > 62.2 µM (inactive) | 41.6 µM (inactive) | 33.5 µM (inactive) | > 58.6 µM (inactive) | > 59 µM (inactive) | > 92.3 µM (inactive) | > 59.2 µM (inactive) | > 61.5 µM (inactive) | > 60.1 µM (inactive) | > 59.6 µM (inactive) | > 56.8 µM (inactive) | > 57.4 µM (inactive) | > 61 µM (inactive)
CCOC(=O)Cn1c(=O)c2cc(-c3ccccc3)cc3c(Cl)nc4c(OC)c(OC)cc1c4c32 | 17 µM (inactive) | 27.2 µM (inactive) | 5.16 µM (inactive) | 16.7 µM (inactive) | 13.9 µM (inactive) | 15 µM | 11.6 µM (inactive) | 9.14 µM (inactive) | 3.1 µM (inactive) | 0.578 µM (active) | 14.8 µM (inactive) | 16.9 µM (inactive) | 20.9 µM (inactive) | 40.7 µM (inactive) | 43.8 µM (inactive) | 19 µM (inactive) | 17.7 µM (inactive) | 31.7 µM (inactive) | 14.8 µM (inactive) | 2.07 µM (inactive)
O=C(O)CCCc1nc2c(n1Cc1ccccc1)C(=O)c1ccccc1C2=O | 34.4 µM (inactive) | > 100 µM (inactive) | 5.19 µM (inactive) | 56.2 µM (inactive) | 28.6 µM (inactive) | 52.4 µM | 40.4 µM (inactive) | 29.6 µM (inactive) | 44.9 µM (inactive) | 15.7 µM (inactive) | 29.4 µM (inactive) | 36.6 µM (inactive) | 21.5 µM (inactive) | 25.8 µM (inactive) | > 100 µM (inactive) | > 100 µM (inactive) | 40.6 µM (inactive) | > 100 µM (inactive) | 17.2 µM (inactive) | > 100 µM (inactive)
